Experiments:
Assay type in all cases: functional
[1] = tested on: T47D; test: Antiproliferative activity against human T47D cells assessed as growth inhibition at 10 uM after 48 hrs by SRB assay; details: read-out: GI
[2] = tested on: HL-60; test: Antiproliferative activity against human HL60 cells assessed as growth inhibition at 10 uM after 48 hrs by SRB assay; details: HL-60, 48 h, read-out: GI
[3] = tested on: PC-3; test: Antiproliferative activity against human PC3 cells assessed as growth inhibition at 10 uM after 48 hrs by SRB assay; details: PC-3, 48 h, read-out: GI
[4] = Antiproliferative activity against human MIAPaCa2 cells assessed as growth inhibition at 10 uM after 48 hrs by SRB assay; details: MIA PaCa-2, 48 h, read-out: GI
[5] = tested on: T98G; test: Antiproliferative activity against human T98G cells assessed as growth inhibition at 10 uM after 48 hrs by SRB assay; details: read-out: GI
[6] = tested on: A-431; test: Antiproliferative activity against human A431 cells assessed as growth inhibition at 10 uM after 48 hrs by SRB assay; details: A-431, 48 h, read-out: GI
[7] = tested on: A549; test: Antiproliferative activity against human A549 cells assessed as growth inhibition at 10 uM after 48 hrs by SRB assay; details: A549, 48 h, read-out: GI
[8] = Antiproliferative activity against human NCI-H322 cells assessed as growth inhibition at 10 uM after 48 hrs by SRB assay; details: NCI-H322, 48 h, read-out: GI

| SMILES | inhibition of growth at 10 µM [1] [%] | inhibition of growth at 10 µM [2] [%] | inhibition of growth at 10 µM [3] [%] | inhibition of growth at 10 µM [4] [%] | inhibition of growth at 10 µM [5] [%] | inhibition of growth at 10 µM [6] [%] | inhibition of growth at 10 µM [7] [%] | inhibition of growth at 10 µM [8] [%] |
| --- | --- | --- | --- | --- | --- | --- | --- | --- |
| Clc1ncnc2sc(Nc3ccccc3)nc12 | 22 | 21 | 20 | 4 | 1 | 1 | 3 | 0 |
| CN(C)c1ncnc2sc(Nc3ccc(Cl)cc3)nc12 | 21 | 39 | 28 | 28 | 23 | 0 | 23 | 6 |
| O=C(Nc1nc2c(Cl)ncnc2s1)c1ccccc1 | 32 | 21 | 21 | 15 | 23 | 0 | 29 | 37 |
| CN1CCN(c2ncnc3sc(Nc4ccc(Cl)cc4)nc23)CC1 | 21 | 20 | 18 | 5 | 20 | 21 | 18 | 10 |
| COc1ccc(Nc2nc3c(Cl)ncnc3s2)cc1 | 19 | 31 | 26 | 0 | 4 | 9 | 0 | 25 |
| c1ccc(Nc2nc3c(N4CCCCC4)ncnc3s2)cc1 | 31 | 22 | 2 | 17 | 42 | 22 | 54 | 41 |
| Clc1ccc(Nc2nc3c(N4CCCC4)ncnc3s2)cc1 | 38 | 41 | 31 | 37 | 6 | 17 | 26 | 27 |
| Clc1ccc(Nc2nc3c(Cl)ncnc3s2)cc1 | 9 | 18 | 18 | 10 | 0 | 0 | 46 | 47 |

Reference: ChEMBL document CHEMBL3085659, “Synthesis, antiproliferative and apoptosis-inducing activity of thiazolo[5,4-d]pyrimidines” (Eur J Med Chem, 2013)
